# According to PMC8546889 (Acta Pharmaceutica Sinica. B, 2021):
# Read-outs that look alike come from different tables or passages of the source.
# Columns and labels:
# [1] = read-out: Cytotoxicity (CC50); cited from earlier work
# Cytotoxicity = type: cell-based
# HT-29 cells [2] = experiment: Anti-necroptosis activity assay; type: cell-based, human; settings: for EC50: Homo sapiens, HT-29, read-out: Anti-necroptosis (EC50); for anti-necroptosis activity improvement compared with TAK-632: EC50 ratio versus TAK-632
# RIP1 [3] = target: T1, RIP1 (Homo sapiens, UniProt Q13546); experiment: KINOMEscan kinase binding assay, RIP1; settings: for RIP1 selectivity: RIP1 over RIP3 (Kd ratio)
# T1 sequence (Q13546 1-671): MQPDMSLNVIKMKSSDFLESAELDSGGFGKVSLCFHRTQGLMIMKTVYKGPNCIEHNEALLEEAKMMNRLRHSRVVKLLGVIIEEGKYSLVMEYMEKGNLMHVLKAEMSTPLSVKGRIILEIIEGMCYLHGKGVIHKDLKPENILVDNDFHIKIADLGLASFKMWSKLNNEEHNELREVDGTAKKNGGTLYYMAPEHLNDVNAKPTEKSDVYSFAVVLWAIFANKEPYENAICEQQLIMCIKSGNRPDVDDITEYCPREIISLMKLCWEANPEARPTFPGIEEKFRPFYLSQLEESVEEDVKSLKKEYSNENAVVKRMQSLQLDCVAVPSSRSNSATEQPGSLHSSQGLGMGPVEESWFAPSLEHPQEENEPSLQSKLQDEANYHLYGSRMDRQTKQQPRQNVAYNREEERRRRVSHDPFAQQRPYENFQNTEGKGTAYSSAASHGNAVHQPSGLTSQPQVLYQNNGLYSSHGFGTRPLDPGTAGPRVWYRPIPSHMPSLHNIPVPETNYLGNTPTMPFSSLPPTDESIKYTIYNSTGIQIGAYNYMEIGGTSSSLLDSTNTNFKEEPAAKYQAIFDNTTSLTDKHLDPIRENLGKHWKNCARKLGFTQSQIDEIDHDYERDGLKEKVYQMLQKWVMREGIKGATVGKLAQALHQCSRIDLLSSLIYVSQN
# RIP3 [4] = target: T2, RIP3 (Homo sapiens, UniProt Q9Y572); experiment: KINOMEscan kinase binding assay, RIP3
# T2 sequence (Q9Y572 whole entry): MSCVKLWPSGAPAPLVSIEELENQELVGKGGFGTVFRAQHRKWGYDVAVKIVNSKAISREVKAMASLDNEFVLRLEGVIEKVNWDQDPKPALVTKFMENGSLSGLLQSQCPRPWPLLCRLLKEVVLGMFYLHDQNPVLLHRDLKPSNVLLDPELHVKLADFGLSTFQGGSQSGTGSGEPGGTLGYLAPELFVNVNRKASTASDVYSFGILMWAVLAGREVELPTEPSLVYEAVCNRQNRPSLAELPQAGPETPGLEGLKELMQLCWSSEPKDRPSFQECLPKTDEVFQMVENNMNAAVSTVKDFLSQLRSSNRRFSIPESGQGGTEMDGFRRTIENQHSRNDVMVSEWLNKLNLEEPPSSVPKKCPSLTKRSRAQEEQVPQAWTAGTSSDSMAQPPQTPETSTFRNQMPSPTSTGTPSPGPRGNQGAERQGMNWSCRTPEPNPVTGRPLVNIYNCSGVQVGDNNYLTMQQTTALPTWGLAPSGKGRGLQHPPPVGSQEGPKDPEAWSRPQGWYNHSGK
# HT-29 cells [5] = experiment: TCZ-induced necroptosis in HT-29 cells; type: cell-based, human; settings: TCZ 24 h
# RIP1-RIP3 necrosome = target: T3, RIP1-RIP3 necrosome (Homo sapiens, UniProt Q13546); experiment: Immunoprecipitation of RIP1-RIP3 necrosome; settings: HT-29 cells, 1 μmol/L, 6 h
# T3 sequence (Q13546 1-671): T1 sequence (Q13546 1-671)
# C57BL/6 J mice [6] = experiment: TNF-α-induced systemic inflammatory response syndrome; settings: for survival rate of SIRS mice: over 60 h
# RIP1 [7] = target: T1, RIP1; experiment: Drug affinity responsive target stability assay; settings: 50 μmol/L, HT-29 cell lysates, 0.1% Pronase 30 min
# RIP3 [8] = target: T2, RIP3; experiment: Drug affinity responsive target stability assay; settings: 50 μmol/L, HT-29 cell lysates, 0.1% Pronase 30 min
# [9] = tested on: phosphorylation of RIP1, RIP3, and MLKL; experiment: Immunoblotting of necroptosis pathway phosphorylation in TSZ-induced HT-29 cells; type: cell-based, human; settings: 1 μmol/L
# L929 cells = experiment: TZ-induced necroptosis in L929 cells; settings: mTNF-α and Z-VAD-FMK (TZ), 9 h
# C57BL/6 J mice [10] = experiment: DSS-induced UC model; type: in vivo
# PK study in mice = type: in vivo; settings: male, ICR, mouse, plasma; for AUC: mice
# HT-29 cells [11] = experiment: Apoptosis model induced by TC or TS in HT-29 cells; type: cell-based, human; settings: different concentrations
# healthy mice = experiment: Single-dose acute oral toxicity test; type: in vivo
structure (smiles),measurement,setting,value
"N#Cc1c(Oc2ccc(F)c(NC(=O)Cc3cccc(C(F)(F)F)c3)c2)ccc2nc(NC(=O)C3CC3)sc12 [Compound 5, N-(7-Cyano-6-(4-fluoro-3-(2-(3-(trifluoromethyl)phenyl)acetamido)phenoxy)benzo[d]thiazol-2-yl)cyclopropanecarboxamide]",CC50,[1],> 50000 nM
O=C(Cc1cccc(C(F)(F)F)c1)Nc1cc(Oc2ccc3nc(NC(=O)C4CC4)sc3c2[N+](=O)[O-])ccc1F [Compound 9],CC50,Cytotoxicity,> 50000 nM
same,EC50,HT-29 cells [2],480 ± 10 nM
same,Kd,RIP1 [3],710 nM
same,RIP1 selectivity,RIP1 [3],0.37
same,Kd,RIP3 [4],260 nM
CC(=O)c1c(Oc2ccc(F)c(NC(=O)Cc3cccc(C(F)(F)F)c3)c2)ccc2nc(NC(=O)C3CC3)sc12 [Compound 10],CC50,Cytotoxicity,> 50000 nM
same,anti-necroptosis activity improvement compared with TAK-632,HT-29 cells [2],more than 10 fold
same,EC50,HT-29 cells [2],130 ± 60 nM
same,Kd,RIP1 [3],880 nM
same,RIP1 selectivity,RIP1 [3],0.37
same,Kd,RIP3 [4],330 nM
N#Cc1cc(Oc2ccc(F)c(NC(=O)Cc3cccc(C(F)(F)F)c3)c2)cc2sc(NC(=O)C3CC3)nc12 [Compound 15],EC50,HT-29 cells [2],> 10000 nM
same,anti-necroptosis activity,HT-29 cells [2]; at 10 μmol/L,completely eliminated the activity
"O=C(Cc1cccc(C(F)(F)F)c1)Nc1cc(Oc2cc3sc(NC(=O)C4CC4)nc3cc2F)ccc1F [Compound 25, N-(5-Fluoro-6-(4-fluoro-3-(2-(3-(trifluoromethyl)phenyl)acetamido)phenoxy)benzo[d]thiazol-2-yl)cyclopropanecarboxamide]",inhibition of necroptosis induced by TCZ,HT-29 cells [5],dose-dependently inhibit necroptosis
same,TSZ-induced necrosome formation,RIP1-RIP3 necrosome,completely blocked
same,body temperature loss in SIRS mice,"C57BL/6 J mice [6]; 10 or 20 mg/kg intragastric, first 2–3 h after mTNF-α/Z-VAD-FMK",protected mice from body temperature loss
same,survival rate of SIRS mice,C57BL/6 J mice [6]; single dose 10 mg/kg,60%
same,survival rate of SIRS mice,C57BL/6 J mice [6]; single dose 20 mg/kg,100%
same,CC50,Cytotoxicity,> 50000 nM
same,DARTS protection of RIP1 from protease digestion,RIP1 [7],protected from protease digestion
same,DARTS detection of RIP3 after protease digestion,RIP3 [8],not detected
same,downstream phosphorylation of MLKL,[9],completely inhibited
same,phosphorylation of RIP1 and RIP3,[9]; within 6 h,completely inhibit
same,anti-necroptosis potency improvement compared with SZM-594,HT-29 cells [2]; EC50 ratio versus SZM-594,21 fold
same,anti-necroptosis activity improvement compared with TAK-632,HT-29 cells [2],180 fold
same,inhibition of necroptosis induced by TSZ,"HT-29 cells [2]; HT-29 cells, TSZ 12 h",dose-dependently inhibit necroptosis
same,EC50,HT-29 cells [2],8 ± 1 nM
same,attenuation of necroptosis in L929 cells,L929 cells,dose-dependently attenuated necroptosis
same,colon length,"C57BL/6 J mice [10]; 20 mg/kg, Day 13, P < 0.01 versus untreated colitis mice",longer colon length
same,alleviation of body weight in UC mice,"C57BL/6 J mice [10]; 10 or 20 mg/kg intragastric, from Day 11",significantly dose-responsed speeded up
same,"phosphorylation of RIP1, RIP3 and MLKL in colon tissue","C57BL/6 J mice [10]; Western blot, TUNEL",reducing the phosphorylation
same,mRNA of inflammatory cytokines (Il-6 and Il-1β) and chemokine receptors (Ccr-2 and Ccr-5),"C57BL/6 J mice [10]; colon tissue, qPCR",significantly reduced
same,protein expressions of IL-6 and IL-1β in colon tissue,C57BL/6 J mice [10]; dose–response manner,inhibited the protein expressions
same,level of FITC-dextran in the serum,"C57BL/6 J mice [10]; intestinal permeability, versus DSS-disease mice",significantly lower
same,MRT inf,"PK study in mice; iv, 1 mg/kg",1.59 ± 0.43 h
same,Vd,"PK study in mice; iv, 1 mg/kg",1670 ± 856 L/kg
same,clearance,"PK study in mice; iv, 1 mg/kg",16.8 ± 4.8 mL/min/kg
same,half-life,"PK study in mice; iv, 1 mg/kg",1.67 ± 0.46 h
same,AUC,"PK study in mice; iv, 1 mg/kg, AUC0‒t, 1 mg/kg i.v.",1030 ± 350 ng·h/mL
same,AUC,"PK study in mice; iv, 1 mg/kg, AUC0‒∞, 1 mg/kg i.v.",1060 ± 354 ng·h/mL
same,Cmax,"PK study in mice; po, 10 mg/kg",381 ± 35 ng/mL
same,MRT inf,"PK study in mice; po, 10 mg/kg",2.74 ± 0.32 h
same,Tmax,"PK study in mice; po, 10 mg/kg",0.67 ± 0.29 h
same,bioavailability,"PK study in mice; po, 10 mg/kg",9.69 ± 2.31%
same,half-life,"PK study in mice; po, 10 mg/kg",1.18 ± 0.62 h
same,AUC,"PK study in mice; po, 10 mg/kg, AUC0‒t, 10 mg/kg p.o.",991 ± 218 ng·h/mL
same,AUC,"PK study in mice; po, 10 mg/kg, AUC0‒∞, 10 mg/kg p.o.",1030 ± 245 ng·h/mL
same,protective effects in the apoptosis model,HT-29 cells [11],did not show any protective effects
same,death after single oral dose,"healthy mice; 5 g/kg intragastric, 2 weeks, male and female mice",no death occurred
same,acute tolerability,"healthy mice; 5 g/kg, 14-day period",well tolerated
same,activity toward RIP3,RIP3 [4]; even at 5000 nmol/L,no apparent activity
